Experimental findings from patent US9751869B2, “LXR modulators” (BRISTOL-MYERS SQUIBB COMPANY, priority 2013, dated 2017) are described below.

As a reminder, the EC50 is the concentration that produces a half-maximal response.

Molecules are shown by their SMILES.

The experiment concerns the target T1, LXRβ (Homo sapiens, UniProt P55055).
T1 construct: Co-transfection expression plasmids, comprising full-length LXRα (pCMX-h LXRα or LXRβ (pCMX-hLXRβ)); expressed in transfected cells; host or cells: CV-1 African green monkey kidney cells, transient transfection with pCMX-hLXRβ
T1 sequence (P55055 1-460): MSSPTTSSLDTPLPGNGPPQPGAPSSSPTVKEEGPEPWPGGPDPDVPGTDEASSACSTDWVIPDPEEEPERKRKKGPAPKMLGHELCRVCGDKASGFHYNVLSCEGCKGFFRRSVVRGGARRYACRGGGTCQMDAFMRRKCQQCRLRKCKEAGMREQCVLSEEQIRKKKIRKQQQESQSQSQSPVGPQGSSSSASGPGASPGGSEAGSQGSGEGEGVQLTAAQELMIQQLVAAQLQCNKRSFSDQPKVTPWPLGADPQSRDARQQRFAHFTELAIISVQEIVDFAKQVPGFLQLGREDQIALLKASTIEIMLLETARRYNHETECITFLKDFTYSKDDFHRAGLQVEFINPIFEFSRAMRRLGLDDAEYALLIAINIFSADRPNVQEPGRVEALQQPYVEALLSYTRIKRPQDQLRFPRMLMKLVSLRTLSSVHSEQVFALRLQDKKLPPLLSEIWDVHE
T1 sequence (P19793 1-462 partner): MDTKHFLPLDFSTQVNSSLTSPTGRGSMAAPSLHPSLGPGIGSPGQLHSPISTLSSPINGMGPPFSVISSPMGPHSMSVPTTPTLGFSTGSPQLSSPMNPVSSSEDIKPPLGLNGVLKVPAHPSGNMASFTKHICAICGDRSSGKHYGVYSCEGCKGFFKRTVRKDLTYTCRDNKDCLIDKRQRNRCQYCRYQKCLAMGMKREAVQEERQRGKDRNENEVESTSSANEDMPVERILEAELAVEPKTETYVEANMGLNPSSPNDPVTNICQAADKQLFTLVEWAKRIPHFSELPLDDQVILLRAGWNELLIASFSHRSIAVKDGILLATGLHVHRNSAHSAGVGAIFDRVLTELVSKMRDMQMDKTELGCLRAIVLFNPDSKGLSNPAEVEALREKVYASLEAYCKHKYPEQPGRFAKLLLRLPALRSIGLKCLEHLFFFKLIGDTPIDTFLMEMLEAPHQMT
Nature of the experiment: LXR/LXRE co-transfection assay (luciferase reporter) in CV-1 cells, LXRβ. The format is cell-based. Particulars: for EC50: CV-1 cells transfected with pCMX-hLXRβ and LXREx1-Tk-Luciferase, 20 hours incubation, read-out: LXRbeta agonism EC50; for Emax: CV-1 cells, relative to maximum response of high control N-(3-((4-fluorophenyl)-(naphthalene-2-sulfonyl)amino)propyl)-2,2-dimethylpropionamide, read-out: LXRbeta % EFFICACY
Put shortly:
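CV-1 cells transiently co-transfected with full-length human LXRβ, LXRE-Tk-luciferase reporter and β-galactosidase control, then exposed to compound (≤0.5% DMSO) for 20 h at 37 °C before luminescence read. EC50 from 10-point, half-log dose curves; efficacy relative to the sulfonamide high control, means of 2–3 experiments.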

For the compound `Cc1nc(-c2ccc3c(c2)OC(F)(F)O3)c(-c2cc(-c3cc(F)c(CO)c(S(C)(=O)=O)c3)ccc2-n2cc(Cl)c(C(F)(F)F)n2)o1` [Example 420, (4′-(4-chloro-3-(trifluoromethyl)-1H-pyrazol-1-yl)-3′-(4-(2,2-difluorobenzo[d][1,3]dioxol-5-yl)-2-methyloxazol-5-yl)-3-fluoro-5-(methylsulfonyl)-[1,1′-biphenyl]-4-yl) methanol], the EC50 turned out to be 7 nM and the Emax was found to be 74%.
On the same counts, the results for `Cc1nc(-c2cc(F)c(OC(F)F)c(F)c2)c(-c2cc(-c3cccc(S(C)(=O)=O)c3)ccc2-n2cc(Cl)c(C(F)(F)F)n2)o1` [Example 421] are 21 nM and 76%.
Consider `Cc1nc(-c2cc(F)c(OC(F)F)c(F)c2)c(-c2cc(-c3cc(F)c(CO)c(S(C)(=O)=O)c3)ccc2-n2cc(Cl)c(C(F)(F)F)n2)o1` [Example 422, (4′-(4-chloro-3-(trifluoromethyl)-1H-pyrazol-1-yl)-3′-(4-(4-(difluoromethoxy)-3,5-difluorophenyl)-2-methyloxazol-5-yl)-3-fluoro-5-(methylsulfonyl)-[1,1′-biphenyl]-4-yl)methanol], for which the EC50 was 4 nM and the Emax worked out at 98%.
As for `Cc1nc(-c2ccc(Cl)cc2Cl)c(-c2cc(-c3cccc(S(C)(=O)=O)c3)ccc2-n2cc(Cl)c(C(F)(F)F)n2)o1` [Example 423, 5-(4-(4-chloro-3-(trifluoromethyl)-1H-pyrazol-1-yl)-3′-(methylsulfonyl)-[1,1′-biphenyl]-3-yl)-4-(2,4-dichlorophenyl)-2-methyloxazole], the EC50 amounted to 60 nM and the Emax stood at 78%.
Taken in the same sequence, the figures for `Cc1nc(-c2ccc(Cl)cc2Cl)c(-c2cc(-c3cc(F)c(CO)c(S(C)(=O)=O)c3)ccc2-n2cc(Cl)c(C(F)(F)F)n2)o1` [Example 424, (4′-(4-chloro-3-(trifluoromethyl)-1H-pyrazol-1-yl)-3′-(4-(2,4-dichlorophenyl)-2-methyloxazol-5-yl)-3-fluoro-5-(methylsulfonyl)-[1,1′-biphenyl]-4-yl)methanol] were 13 nM and 60%.
Taken in the same sequence, the figures for `Cc1nc(-c2ccc(OC(F)F)nc2)c(-c2cc(-c3cccc(S(C)(=O)=O)c3)ccc2-n2cc(Cl)c(C(F)(F)F)n2)o1` [Example 425] were 24 nM and 99%.
On the same counts, the results for `Cc1nc(-c2ccc(OC(F)F)nc2)c(-c2cc(-c3cc(F)c(CO)c(S(C)(=O)=O)c3)ccc2-n2cc(Cl)c(C(F)(F)F)n2)o1` [Example 426, (4′-(4-chloro-3-(trifluoromethyl)-1H-pyrazol-1-yl)-3′-(4-(6-(difluoromethoxy)pyridin-3-yl)-2-methyloxazol-5-yl)-3-fluoro-5-(methylsulfonyl)-[1,1′-biphenyl]-4-yl) methanol] are 8 nM and 72%.
As to `COc1ncc(-c2nc(C)oc2-c2cc(-c3cccc(S(C)(=O)=O)c3)ccc2-n2cc(Cl)c(C(F)(F)F)n2)cn1` [Example 427, 5-(4-(4-chloro-3-(trifluoromethyl)-1H-pyrazol-1-yl)-3′-(methylsulfonyl)-[1,1′-biphenyl]-3-yl)-4-(2-methoxypyrimidin-5-yl)-2-methyloxazole], the 50% effective concentration (EC50) turned out to be 94 nM and the Emax came out at 58%.
Taken in the same sequence, the figures for `COc1ncc(-c2nc(C)oc2-c2cc(-c3cc(F)c(CO)c(S(C)(=O)=O)c3)ccc2-n2cc(Cl)c(C(F)(F)F)n2)cn1` [Example 428, (4′-(4-chloro-3-(trifluoromethyl)-1H-pyrazol-1-yl)-3-fluoro-3′-(4-(2-methoxypyrimidin-5-yl)-2-methyloxazol-5-yl)-5-(methylsulfonyl)-[1,1′-biphenyl]-4-yl)methanol] were 93 nM and 83%.
Taken in the same sequence, the figures for `Cc1nc(-c2ccc(OC(F)(F)F)cc2)c(-c2cc(-c3cccc(C(C)(C)C#N)c3)ccc2-n2cc(Cl)c(C(F)(F)F)n2)o1` [Example 429, 2-(4′-(4-chloro-3-(trifluoromethyl)-1H-pyrazol-1-yl)-3′-(2-methyl-4-(4-(trifluoromethoxy)phenyl)oxazol-5-yl)-[1,1′-biphenyl]-3-yl)-2-methylpropanenitrile] were 348 nM and 60%.
Taken in the same sequence, the figures for `Cc1nc(-c2ccc(OC(F)(F)F)cc2)c(-c2cc(-c3cccc(C(C)(C)C(N)=O)c3)ccc2-n2cc(Cl)c(C(F)(F)F)n2)o1` [Example 430, 2-(4′-(4-chloro-3-(trifluoromethyl)-1H-pyrazol-1-yl)-3′-(2-methyl-4-(4-(trifluoromethoxy)phenyl)oxazol-5-yl)-[1,1′-biphenyl]-3-yl)-2-methylpropanamide] were 41 nM and 80%.
`Cc1nc(-c2ccc(OC(F)F)cc2Cl)c(-c2cc(-c3cccc(S(C)(=O)=O)c3)ccc2-n2cc(Cl)c(C(F)(F)F)n2)o1` [Example 431]: the EC50 is 37 nM and the Emax came out at 69%.
Taken in the same sequence, the figures for `Cc1nc(-c2ccc(OC(F)F)cc2Cl)c(-c2cc(-c3cc(F)c(CO)c(S(C)(=O)=O)c3)ccc2-n2cc(Cl)c(C(F)(F)F)n2)o1` [Example 432, (4′-(4-chloro-3-(trifluoromethyl)-1H-pyrazol-1-yl)-3′-(4-(2-chloro-4-(difluoromethoxy)phenyl)-2-methyloxazol-5-yl)-3-fluoro-5-(methylsulfonyl)-[1,1′-biphenyl]-4-yl)methanol] were 19 nM and 79%.
On to `Cc1nc(-c2ccc(OC(F)F)c(F)c2)c(-c2cc(-c3cccc(S(C)(=O)=O)c3)ccc2-n2cc(Cl)c(C(F)(F)F)n2)o1` [Example 433], for which the EC50 came to 50 nM and the Emax was 83%.
As for `Cc1nc(-c2ccc(OC(F)F)c(F)c2)c(-c2cc(-c3cc(F)c(CO)c(S(C)(=O)=O)c3)ccc2-n2cc(Cl)c(C(F)(F)F)n2)o1` [Example 434, (4′-(4-chloro-3-(trifluoromethyl)-1H-pyrazol-1-yl)-3′-(4-(4-(difluoromethoxy)-3-fluorophenyl)-2-methyloxazol-5-yl)-3-fluoro-5-(methylsulfonyl)-[1,1′-biphenyl]-4-yl)methanol], the EC50 is 13 nM and the Emax is 78%.
Taken in the same sequence, the figures for `Cc1nc(-c2ccc(OC(F)F)cc2)c(-c2cc(-c3cccc(S(C)(=O)=O)c3)ccc2-n2ccc(C(F)(F)F)n2)o1` [Example 435, 4-(4-(difluoromethoxy)phenyl)-2-methyl-5-(3′-(methylsulfonyl)-4-(3-(trifluoromethyl)-1H-pyrazol-1-yl)-[1,1′-biphenyl]-3-yl)oxazole] were 30 nM and 53%.
Turning to `Cc1nc(-c2ccc(OC(F)F)cc2)c(-c2cc(-c3cc(F)c(CO)c(S(C)(=O)=O)c3)ccc2-n2ccc(C(F)(F)F)n2)o1` [Example 436, (3′-(4-(4-(difluoromethoxy)phenyl)-2-methyloxazol-5-yl)-3-fluoro-5-(methylsulfonyl)-4′-(3-(trifluoromethyl)-1H-pyrazol-1-yl)-[1,1′-biphenyl]-4-yl)methanol], the EC50 came to 6 nM and the Emax was 61%.
Taken in the same sequence, the figures for `Cc1nc(-c2ccc(C(F)(F)F)cc2)c(-c2cc(-c3cccc(S(C)(=O)=O)c3)ccc2-n2cc(Cl)c(C(F)(F)F)n2)o1` [Example 437, 5-(4-(4-chloro-3-(trifluoromethyl)-1H-pyrazol-1-yl)-3′-(methylsulfonyl)-[1,1′-biphenyl]-3-yl)-2-methyl-4-(4-(trifluoromethyl)phenyl)oxazole] were 321 nM and 49%.
